Drawing on the METLIN SMRT retention time set (Domingo-Almenara et al. 2019), this text covers RP-LC retention time for 80 compounds.

Structures are written as SMILES.

This data set is described as follows: gradient 5% acetonitrile 3 min, to 50% in 2 min, to 85% in 15 min, held 3 min, 100 µL/min. The note with it: column: Zorbax Extend-C18 2.1 x 50 mm; eluents: water / acetonitrile, 0.1% formic acid. A digest of the protocol:
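Pure standards were run in mixtures of ~100 molecules by HPLC coupled to a quadrupole time-of-flight mass spectrometer. The column was a Zorbax Extend-C18 (2.1 × 50 mm, 1.8 μm) at 100 μL/min, with water and acetonitrile each containing 0.1% formic acid, in positive and negative ionization mode. Dead and dwell volumes were 40 μL and 900 μL. Retention time was taken from computationally picked adduct peaks, each manually inspected, with data collected over 3 months.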
Regarding `Cc1ccc(-c2nnc(-c3cccc(S(=O)(=O)NCC4CCCO4)c3)o2)cc1` (stereo not given), the RP-LC retention time is 918 s.

Compound `COc1ccc(N2CCN(S(=O)(=O)c3cc(-c4nnc(C5CC5)o4)co3)CC2)cc1` came in with an RP-LC retention time of 909 s.

The compound `CC1CCN(S(=O)(=O)c2nn(C)cc2C(=O)O)CC1` gave an RP-LC retention time of 707 s.

`CC(C)c1cccc(N2C=C(C(=O)N3CCOCC3)S(=O)(=O)c3ccccc32)c1` had an RP-LC retention time of 878 s.

In the case of `O=C(N1[C@H]2CC[C@@H]1c1cnc(-c3ccc(F)cc3)nc1C2)C1(c2ccccc2)CC1`, the RP-LC retention time worked out at 1070 s.

Compound `Cc1cccc(Nc2nc3ccncc3n(Cc3ccccc3)c2=O)c1` yielded an RP-LC retention time of 673 s.

Turning to `CCOc1ccc(CNC(=O)C2CCN(Cc3cn(C)c4ccc(Cl)cc34)CC2)cc1OC`, the RP-LC retention time came out at 717 s.

For the compound `O=C(Nc1ccc(-c2nc(-c3ccccc3)no2)cc1)C1CC(=O)N(c2ccccc2)C1` (stereo not given), the RP-LC retention time was determined as 1030 s.

The compound `COc1ccc(NS(=O)(=O)c2cc(-c3cc(C(F)(F)F)on3)sc2C)cc1Cl` displayed an RP-LC retention time of 1140 s.

Compound `Cc1nc2cc(N3CC(C(=O)N4CCN(c5ccccc5)CC4)CC3=O)ccc2o1` (stereo not given) gave an RP-LC retention time of 727 s.

Turning to `Cc1ccc(NC(=O)NCC2CCOCC2)cc1`, the RP-LC retention time turned out to be 704 s.

The compound `Cc1noc(-c2cc(=O)n(CC(=O)Nc3ccc4c(c3)OCCO4)c3ccccc23)n1` yielded an RP-LC retention time of 803 s.

`COc1ccc(NC(=O)CSc2cc(N3CCN(c4ccc(OC)cc4)CC3)ncn2)cc1`: the RP-LC retention time was 859 s.

With `Clc1ccccc1N1CCN(Cc2nnc(-c3ccccc3)o2)CC1`, the RP-LC retention time came to 768 s.

The compound `Cc1cc(NS(=O)(=O)c2cc(-c3ccn[nH]3)sc2C)ccc1Br` yielded an RP-LC retention time of 908 s.

Regarding `COc1ccc(-c2nc(N3CCCCC3)c3ccccc3n2)cc1`, the RP-LC retention time was determined as 777 s.

In the case of `Cc1noc(C2CN(C(=O)Nc3ccccc3Cl)CC23CCOCC3)n1` (stereo not given), the RP-LC retention time is 732 s.

In the case of `CCOC(=O)C1CCN(c2ncnc3c2cnn3-c2ccc(OC)cc2)CC1`, the RP-LC retention time is 952 s.

For the compound `O=C(NCCc1csc(-c2ccccc2)n1)[C@H]1CCCN1S(=O)(=O)c1cccc2nsnc12`, the RP-LC retention time was determined as 888 s.

With `CCc1ccc(NC(=O)Cc2nnc3c(-c4nc(C5CC5)no4)cccn23)cc1`, the RP-LC retention time is 805 s.

`COc1ccc(OC)c(NC(=O)Cn2c(C)cc(-c3nnc(C)o3)c2C)c1` registered an RP-LC retention time of 776 s.

The compound `COc1ccc(C2C(C(=O)NCCCN3CCOCC3)CCC(=O)N2c2ccc(OC)cc2)cc1` (stereo not given) gave an RP-LC retention time of 580 s.

Consider `Cc1ccc2c(c1)N(S(C)(=O)=O)CCC(C(=O)Nc1ccc(F)cc1F)O2` (stereo not given), for which the RP-LC retention time came out at 958 s.

For the compound `CCOC(=O)N1CCN(C(=O)C2CCC(=O)N(c3ccc(OC)cc3)C2c2ccc(F)cc2)CC1` (stereo not given), the RP-LC retention time was 726 s.

`Cc1cccc(-c2noc(-c3nn(CC(=O)NC4CCCC4)c4ccccc34)n2)c1` came in with an RP-LC retention time of 1180 s.

The compound `c1cncc(-c2noc(CCC3CCCN(C4CCCCC4)C3)n2)c1` (stereo not given) came in with an RP-LC retention time of 624 s.

Take `CCC(=O)N1CCc2c(sc3ncnc(N4CCCC4)c23)C1`: the RP-LC retention time is 641 s.

`Cc1ccc2c(c1)C(=O)NC1(CCN(C(=O)NCCc3ccccc3)CC1)N2C` displayed an RP-LC retention time of 755 s.

The compound `CCOc1ccc(CCNC(=O)c2cc(S(=O)(=O)N3CCCCC3)c(C)n2C)cc1OCC` returned an RP-LC retention time of 1010 s.

Compound `CCN1C(=O)Cc2ccccc2C1C(=O)NCc1ccc2c(c1)OCO2` (stereo not given) gave an RP-LC retention time of 727 s.

Regarding `CCN1C(=O)C2(CCN(S(=O)(=O)CC)CC2)c2ccccc21`, the RP-LC retention time came out at 774 s.

The compound `Cc1noc(C)c1S(=O)(=O)N1CCOC(c2ccccc2)C1` (stereo not given) registered an RP-LC retention time of 882 s.

With `COCCNC(=O)N1CCC(c2nnc(C(F)(F)F)o2)CC1`, the RP-LC retention time came out at 616 s.

In turn, `CC(C)CNC(=O)c1n[nH]c2c1CCCCCC2` came in with an RP-LC retention time of 850 s.

As to `O=C(Nc1ccc(F)cc1Cl)c1c(O)c2cccnc2n(Cc2ccccc2)c1=O`, the RP-LC retention time stood at 1240 s.

In turn, `CN(C)c1ccc(CNC(=O)CN2c3ccccc3NC3=C(C(=O)CCC3)C2c2ccco2)cc1` (stereo not given) yielded an RP-LC retention time of 628 s.

Take `CCc1ccc(N2C(=O)C3N=NN(c4cccc(OC)c4)C3C2=O)cc1` (stereo not given): the RP-LC retention time is 1020 s.

With `Cc1ccoc1C(=O)N1CCCn2ccnc2C1c1cnn(C)c1` (stereo not given), the RP-LC retention time is 570 s.

As to `Cc1ccc(C(=O)NCc2ccc(-n3ccnc3)cc2)s1`, the RP-LC retention time was 602 s.

In turn, `COc1ccccc1NC(=O)c1cc(=O)n2c(nc3ccccc32)s1` registered an RP-LC retention time of 964 s.

For the compound `CCCNC(=O)C1CCCN(c2nc(C)nc3onc(C)c23)C1` (stereo not given), the RP-LC retention time came to 690 s.

On to `CSc1ccccc1C(=O)N(Cc1ccsc1)CC(F)(F)F`, for which the RP-LC retention time was 987 s.

Regarding `CCCNC(=O)C1CCCN(c2ccc(SCC(=O)Nc3ccccc3C(=O)OC)nn2)C1` (stereo not given), the RP-LC retention time was 705 s.

Take `Cc1cc(Cl)ccc1NC(=O)C1CCN(c2c(C(=O)N3CCOCC3)cnc3snc(C)c23)CC1`: the RP-LC retention time came to 847 s.

Compound `CC1CCN(c2cc(-c3nc(-c4ccccc4)no3)c3ccccc3n2)CC1` gave an RP-LC retention time of 1360 s.

Compound `Cc1ccc(-n2nc3c(N4CCCC(C(=O)NCc5ccc(Cl)cc5)C4)nnc(C)c3c2C)cc1` (stereo not given) came in with an RP-LC retention time of 789 s.

As to `CCc1cccc(NS(=O)(=O)c2cn(CC(C)C)c3ncccc23)c1`, the RP-LC retention time was 1070 s.

The compound `CC1CCN(C(=O)c2cc(S(=O)(=O)N(C)CC(=O)NC(C)C)cn2C)CC1` returned an RP-LC retention time of 723 s.

`CCOC(=O)CCC(=O)N1CCN(Cc2nc(C(C)(C)C)cs2)CC1` gave an RP-LC retention time of 611 s.

`COc1ccc(S(=O)(=O)NC2CCN(C(=O)C3CCC3)CC2)cc1`: the RP-LC retention time is 750 s.

`COCCNC(=O)CC1CCN(C(=O)c2[nH]c(C)cc2C)CC1` yielded an RP-LC retention time of 631 s.

As for `CC(NC(=O)c1ccc(CN2CCN(Cc3ccccc3)C(=O)C2=O)cc1)c1ccccc1` (stereo not given), the RP-LC retention time stood at 812 s.

Consider `Cc1cc(-c2nc(-c3ccc(F)cc3)no2)c(C)n1CC(=O)NC1CCCC1`, for which the RP-LC retention time was determined as 1080 s.

Compound `CC(C)NC(=O)CN1CCN(Cc2nc(-c3ccc(N4CCCCC4)nc3)no2)CC1` gave an RP-LC retention time of 594 s.

Regarding `CCn1cc(CCNC(=O)C2CCCC2)c2cccnc21`, the RP-LC retention time stood at 654 s.

On to `O=C(Nc1ccc2c(c1)OCCO2)N1CCC(Cc2nc(-c3cccnc3)n[nH]2)C1` (stereo not given), for which the RP-LC retention time came to 592 s.

With `COc1ccc(C)cc1NC(=O)c1nc(C)oc1C`, the RP-LC retention time was 1020 s.

In the case of `Cc1csc(-c2cc(S(=O)(=O)NCc3ccc4c(c3)OCO4)cn2CC(=O)N2CCCC2)n1`, the RP-LC retention time was found to be 835 s.

`CC(C)Cn1nc(CNC(=O)C2CCC2)c2ccccc21` had an RP-LC retention time of 872 s.

Compound `Cc1cccc(S(=O)(=O)N2CCc3nc(-c4ccc(Cl)cc4)ncc3C2)c1` showed an RP-LC retention time of 1210 s.

`Cc1cc(N2CCN(C)CC2)nc2ccc(NC(=O)C3CCC(C(C)(C)C)CC3)cc12` (stereo not given) returned an RP-LC retention time of 675 s.

Consider `CN(C)S(=O)(=O)c1ccc(-c2nnc(C(=O)N3CCC(Cc4ccccc4)CC3)o2)cc1`, for which the RP-LC retention time amounted to 1080 s.

`O=C(NC1CCN(c2cc(-c3ccc(Cl)cc3)[nH]n2)C1)c1ccccc1` (stereo not given) registered an RP-LC retention time of 712 s.

The compound `O=S(=O)(c1cccc2cccnc12)N1CCc2ccccc2C1` registered an RP-LC retention time of 876 s.

Compound `COc1ccc(S(=O)(=O)N2CCc3nn(CC(C)C)c(=O)n3CC2)cc1OC` registered an RP-LC retention time of 745 s.

Compound `CCc1nc2cc(-c3noc(-c4ccc(OC)cc4OC)n3)ccc2o1` gave an RP-LC retention time of 1080 s.

`COC(=O)C1=CN(c2ccccc2)c2cc(F)c(F)cc2S1(=O)=O`: the RP-LC retention time stood at 858 s.

In turn, `COCCN1C(=O)[C@H]2CN(Cc3cc(OC)c(OC)c(OC)c3)C[C@H]2C1=O` came in with an RP-LC retention time of 578 s.

For `Cc1ccc(-c2nc3cnccn3c2Nc2ccc(Br)cc2)cc1`, the RP-LC retention time is 1030 s.

In the case of `COc1ccc(-n2c(=O)n(C)c(=O)c3cc(C(=O)NC(C)c4ccc(F)cc4)cnc32)cc1` (stereo not given), the RP-LC retention time was 888 s.

Compound `Cc1c(C(=O)O)nnn1-c1ccc(C(F)(F)F)cc1` showed an RP-LC retention time of 730 s.

In the case of `Cc1oc(-c2[nH]ncc2C(=O)N(C)C)cc1S(=O)(=O)N1CCC(C)CC1`, the RP-LC retention time is 710 s.

The compound `CC(C)CNC(=O)CCc1nc2ccccc2n(CC(=O)NCc2ccccc2Br)c1=O` came in with an RP-LC retention time of 847 s.

Turning to `CCn1ccc2cc(S(=O)(=O)N3CCCC(C(=O)NCCCN(C)Cc4ccccc4)C3)ccc21` (stereo not given), the RP-LC retention time was 715 s.

Compound `OC1(c2ccccc2)CN(c2ccccc2)C2=[N+]1CCS2` (stereo not given) came in with an RP-LC retention time of 551 s.

The compound `CC1=C(C(=O)Nc2ccccc2C(=O)NCCN2CCN(C)CC2)SCCO1` yielded an RP-LC retention time of 599 s.

In turn, `O=C(O)c1ccc(Cn2cnc3ccccc32)o1` displayed an RP-LC retention time of 512 s.

The compound `O=S(=O)(c1cc(-c2nnc(C3CC3)o2)co1)N1CCN(c2ccccc2)CC1` yielded an RP-LC retention time of 960 s.

`O=C(NC1CCN(c2cc(-c3ccccc3)[nH]n2)CC1)c1ccc(Cl)s1` yielded an RP-LC retention time of 838 s.

Turning to `COc1ccc(-c2c(C(=O)NCc3cccs3)nc3ccccn23)cc1`, the RP-LC retention time was found to be 828 s.
